This is an account of results in patent US20250282794A1 (CURADEV PHARMA LTD, priority 2022, published 2025).

In the assay the target is recombinant full length HPK-1 enzyme (Homo sapiens (Human), UniProt Q92918). Description: HPK-1 biochemical enzyme assay (ADP-Glo kinase inhibition). The settings on record: recombinant full length HPK-1 6.8 nM, 10 μM ATP, 12.5 μM MBP, 30 mins at 25° C. In outline: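 ADP-Glo readout of ADP formed after a 30 min, 25° C. reaction of 6.8 nM full-length HPK-1 with swine myelin basic protein (12.5 μM) and ATP (10 μM) in Tris pH 7.4 buffer with MgCl2, DTT and BSA. Ten compound concentrations tested; percent inhibition set against vehicle (0%) and no-enzyme (100%) controls gave IC50.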
Chain of recombinant full length HPK-1 enzyme (Q92918 whole entry, species assumed): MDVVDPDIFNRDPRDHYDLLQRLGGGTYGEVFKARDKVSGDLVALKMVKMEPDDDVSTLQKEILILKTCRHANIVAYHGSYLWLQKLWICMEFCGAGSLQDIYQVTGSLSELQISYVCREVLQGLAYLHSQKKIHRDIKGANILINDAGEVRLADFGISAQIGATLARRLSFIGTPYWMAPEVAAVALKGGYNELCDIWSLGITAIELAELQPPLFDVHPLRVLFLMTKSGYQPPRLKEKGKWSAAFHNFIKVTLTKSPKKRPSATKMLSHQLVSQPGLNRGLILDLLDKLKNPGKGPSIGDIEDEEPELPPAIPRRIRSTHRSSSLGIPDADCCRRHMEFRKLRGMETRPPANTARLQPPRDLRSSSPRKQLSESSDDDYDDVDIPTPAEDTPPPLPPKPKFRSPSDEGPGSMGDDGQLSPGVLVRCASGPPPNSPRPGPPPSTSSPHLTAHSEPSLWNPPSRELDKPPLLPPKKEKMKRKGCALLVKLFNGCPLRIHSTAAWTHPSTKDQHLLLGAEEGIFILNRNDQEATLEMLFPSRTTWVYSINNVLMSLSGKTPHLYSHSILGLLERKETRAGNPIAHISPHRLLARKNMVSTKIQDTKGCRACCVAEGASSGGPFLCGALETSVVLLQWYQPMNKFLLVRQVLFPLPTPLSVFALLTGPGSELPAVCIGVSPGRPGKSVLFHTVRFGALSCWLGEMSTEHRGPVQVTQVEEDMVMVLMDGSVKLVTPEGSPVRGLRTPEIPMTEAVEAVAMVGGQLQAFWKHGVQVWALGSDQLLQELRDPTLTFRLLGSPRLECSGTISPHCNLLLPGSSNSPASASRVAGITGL
`CNC(=O)N1CCN(c2ccc(NC(=O)c3c(Nc4cnc5c(c4C)NCCO5)cc[nH]c3=O)cc2)CC1` [Example 287, N-methyl-4-(4-(4-((8-methyl-2,3-dihydro-1H-pyrido[2,3-b][1,4]oxazin-7-yl)amino)-2-oxo-1,2-dihydropyridine-3-carboxamido)phenyl)piperazine-1-carboxamide]: the IC50 is 10 to 100 nM.
Regarding `Cc1c(Nc2cc[nH]c(=O)c2C(=O)Nc2ccc(N3CCN(c4ccncc4)CC3)cc2)cnc2c1NCCO2` [Example 288, 4-((8-methyl-2,3-dihydro-1H-pyrido[2,3-b][1,4]oxazin-7-yl)amino)-2-oxo-N-(4-(4-(pyridin-4-yl)piperazin-1-yl)phenyl)-1,2-dihydropyridine-3-carboxamide], the IC50 is at most 10 nM.
Next, `COCCN(C)C(=O)N1CCN(c2ccc(NC(=O)c3c(Nc4cnc5c(c4C)NCCO5)cc[nH]c3=O)cc2)CC1` [Example 290, N-(2-methoxyethyl)-N-methyl-4-(4-(4-((8-methyl-2,3-dihydro-1H-pyrido[2,3-b][1,4]oxazin-7-yl)amino)-2-oxo-1,2-dihydropyridine-3-carboxamido)phenyl)piperazine-1-carboxamide]: at most 10 nM; `Cc1c(Nc2cc[nH]c(=O)c2C(=O)Nc2ccc(N3CCN(C)CC3)c(N(C)C)c2)cnc2c1NCCO2` [Example 291, N-(3-(dimethylamino)-4-(4-methylpiperazin-1-yl)phenyl)-4-((8-methyl-2,3-dihydro-1H-pyrido[2,3-b][1,4]oxazin-7-yl)amino)-2-oxo-1,2-dihydropyridine-3-carboxamide]: 10 to 100 nM.
For `Cc1c(Nc2cc[nH]c(=O)c2C(=O)Nc2ccc(N3CCN(C4CCN(C)CC4)CC3)cc2)cnc2c1NCCO2` [Example 292, 4-((8-methyl-2,3-dihydro-1H-pyrido[2,3-b][1,4]oxazin-7-yl)amino)-N-(4-(4-(1-methylpiperidin-4-yl)piperazin-1-yl)phenyl)-2-oxo-1,2-dihydropyridine-3-carboxamide], the half-inhibitory concentration (IC50) is at most 10 nM.
Next, `Cc1c(Nc2cc[nH]c(=O)c2C(=O)Nc2ccc(N3CCN(C(=O)[C@@H]4C[C@@H]4F)CC3)cc2)cnc2c1NCCO2` [Example 293, N-(4-(4-((1S,2S)-2-fluorocyclopropane-1-carbonyl)piperazin-1-yl)phenyl)-4-((8-methyl-2,3-dihydro-1H-pyrido[2,3-b][1,4]oxazin-7-yl)amino)-2-oxo-1,2-dihydropyridine-3-carboxamide]: at most 10 nM.
Next, `Cc1c(Nc2cc[nH]c(=O)c2C(=O)Nc2ccc(N3CCN(C)CC3)c(N)c2)cnc2c1NCC(C)O2` (stereo not drawn) [Example 294, N-(3-amino-4-(4-methylpiperazin-1-yl)phenyl)-4-((3,8-dimethyl-2,3-dihydro-1H-pyrido[2,3-b][1,4]oxazin-7-yl)amino)-2-oxo-1,2-dihydropyridine-3-carboxamide]: at most 10 nM; `CNc1cc(NC(=O)c2c(Nc3cnc4c(c3C)NCCO4)cc[nH]c2=O)ccc1N1CCN(C)CC1` [Example 295, 4-((8-methyl-2,3-dihydro-1H-pyrido[2,3-b][1,4]oxazin-7-yl)amino)-N-(3-(methylamino)-4-(4-methylpiperazin-1-yl)phenyl)-2-oxo-1,2-dihydropyridine-3-carboxamide]: 10 to 100 nM; `Cc1c(Nc2cc[nH]c(=O)c2C(=O)Nc2ccc3nc(NC(=O)[C@@H]4C[C@@H]4F)sc3c2)cnc2c1NCCO2` [Example 296, N-(2-((1S,2S)-2-fluorocyclopropane-1-carboxamido)benzo[d]thiazol-6-yl)-4-((8-methyl-2,3-dihydro-1H-pyrido[2,3-b][1,4]oxazin-7-yl)amino)-2-oxo-1,2-dihydropyridine-3-carboxamide]: 100 to 1000 nM.
With `Cc1c(Nc2cc[nH]c(=O)c2C(=O)Nc2ccc3sc(NC(=O)[C@@H]4C[C@@H]4F)nc3c2)cnc2c1NCCO2` [Example 297, N-(2-((1S,2S)-2-fluorocyclopropane-1-carboxamido)benzo[d]thiazol-5-yl)-4-((8-methyl-2,3-dihydro-1H-pyrido[2,3-b][1,4]oxazin-7-yl)amino)-2-oxo-1,2-dihydropyridine-3-carboxamide], the IC50 was in the range of 100 to 1000 nM.
In the case of `Cc1c(Nc2cc[nH]c(=O)c2C(=O)Nc2ccc(N3CCN(CC(=O)N(C)C)CC3)cc2)cnc2c1NCCO2` [Example 298, N-(4-(4-(2-(dimethylamino)-2-oxoethyl)piperazin-1-yl)phenyl)-4-((8-methyl-2,3-dihydro-1H-pyrido[2,3-b][1,4]oxazin-7-yl)amino)-2-oxo-1,2-dihydropyridine-3-carboxamide], the IC50 is at most 10 nM.
Turning to `CN1CCN(c2ccc(NC(=O)c3c(Nc4cnc5c(c4C#N)NCCO5)cc[nH]c3=O)cc2)CC1` [Example 299, 4-((8-cyano-2,3-dihydro-1H-pyrido[2,3-b][1,4]oxazin-7-yl)amino)-N-(4-(4-methylpiperazin-1-yl)phenyl)-2-oxo-1,2-dihydropyridine-3-carboxamide], the half-maximal inhibitory concentration (IC50) is 10 to 100 nM.
In the case of `Cc1c(Nc2cc[nH]c(=O)c2C(=O)Nc2ccc(N3CCC(C(C)(C)O)CC3)cc2)cnc2c1NCCO2` [Example 300, N-(4-(4-(2-hydroxypropan-2-yl)piperidin-1-yl)phenyl)-4-((8-methyl-2,3-dihydro-1H-pyrido[2,3-b][1,4]oxazin-7-yl)amino)-2-oxo-1,2-dihydropyridine-3-carboxamide], the IC50 was at most 10 nM.
Consider `Cc1c(Nc2cc[nH]c(=O)c2C(=O)Nc2ccc(N3CCC(C)(CO)CC3)cc2)cnc2c1NCCO2` [Example 301, N-(4-(4-(hydroxymethyl)-4-methylpiperidin-1-yl)phenyl)-4-((8-methyl-2,3-dihydro-1H-pyrido[2,3-b][1,4]oxazin-7-yl)amino)-2-oxo-1,2-dihydropyridine-3-carboxamide], for which the IC50 fell in the range of 10 to 100 nM.
On to `Cc1c(Nc2cc[nH]c(=O)c2C(=O)Nc2ccc(N3CCC(C(C)O)CC3)cc2)cnc2c1NCCO2` (stereo not drawn) [Example 302, N-(4-(4-(1-hydroxyethyl)piperidin-1-yl)phenyl)-4-((8-methyl-2,3-dihydro-1H-pyrido[2,3-b][1,4]oxazin-7-yl)amino)-2-oxo-1,2-dihydropyridine-3-carboxamide], for which the half-maximal inhibitory concentration (IC50) is at most 10 nM.
For `Cc1c(Nc2cc[nH]c(=O)c2C(=O)Nc2ccc(N3CCN(C(=O)c4ccn[nH]4)CC3)cc2)cnc2c1NCCO2` [Example 303, N-(4-(4-(1H-pyrazole-5-carbonyl)piperazin-1-yl)phenyl)-4-((8-methyl-2,3-dihydro-1H-pyrido[2,3-b][1,4]oxazin-7-yl)amino)-2-oxo-1,2-dihydropyridine-3-carboxamide], the IC50 was at most 10 nM.
In the case of `Cc1c(Nc2cc[nH]c(=O)c2C(=O)Nc2ccc(N3CCN(C(=O)C4CC(C)(C)C4)CC3)cc2)cnc2c1NCCO2` [Example 304, N-(4-(4-(3,3-dimethylcyclobutane-1-carbonyl)piperazin-1-yl)phenyl)-4-((8-methyl-2,3-dihydro-1H-pyrido[2,3-b][1,4]oxazin-7-yl)amino)-2-oxo-1,2-dihydropyridine-3-carboxamide], the IC50 is at most 10 nM.
Then `Cc1c(Nc2cc[nH]c(=O)c2C(=O)Nc2ccc(N3CCN(C(=O)C4CC4C)CC3)cc2)cnc2c1NCCO2` (stereo not drawn) [Example 305, 4-((8-methyl-2,3-dihydro-1H-pyrido[2,3-b][1,4]oxazin-7-yl)amino)-N-(4-(4-(2-methylcyclopropane-1-carbonyl)piperazin-1-yl)phenyl)-2-oxo-1,2-dihydropyridine-3-carboxamide], with at most 10 nM.
Consider `Cc1c(Nc2cc[nH]c(=O)c2C(=O)Nc2ccc(N3CCN(C(=O)C4(C)CCC4)CC3)cc2)cnc2c1NCCO2` [Example 306, 4-((8-methyl-2,3-dihydro-1H-pyrido[2,3-b][1,4]oxazin-7-yl)amino)-N-(4-(4-(1-methylcyclobutane-1-carbonyl)piperazin-1-yl)phenyl)-2-oxo-1,2-dihydropyridine-3-carboxamide], for which the half-inhibitory concentration (IC50) is at most 10 nM.
Next, `Cc1c(Nc2cc[nH]c(=O)c2C(=O)Nc2ccc(N3CCN(C(=O)C4CC(C)C4)CC3)cc2)cnc2c1NCCO2` (stereo not drawn) [Example 307, 4-((8-methyl-2,3-dihydro-1H-pyrido[2,3-b][1,4]oxazin-7-yl)amino)-N-(4-(4-(3-methylcyclobutane-1-carbonyl)piperazin-1-yl)phenyl)-2-oxo-1,2-dihydropyridine-3-carboxamide]: at most 10 nM; `Cc1c(Nc2cc[nH]c(=O)c2C(=O)Nc2ccc(N3CCN(Cc4ccnn4C)CC3)cc2)cnc2c1NCCO2` [Example 308, N-(4-(4-((1-methyl-1H-pyrazol-5-yl)methyl)piperazin-1-yl)phenyl)-4-((8-methyl-2,3-dihydro-1H-pyrido[2,3-b][1,4]oxazin-7-yl)amino)-2-oxo-1,2-dihydropyridine-3-carboxamide]: at most 10 nM; `Cc1c(Nc2cc[nH]c(=O)c2C(=O)Nc2ccc(N3CCN(C(=O)C4CC4(C)C)CC3)cc2)cnc2c1NCCO2` (stereo not drawn) [Example 309, N-(4-(4-(2,2-dimethylcyclopropane-1-carbonyl)piperazin-1-yl)phenyl)-4-((8-methyl-2,3-dihydro-1H-pyrido[2,3-b][1,4]oxazin-7-yl)amino)-2-oxo-1,2-dihydropyridine-3-carboxamide]: at most 10 nM.
Next, `COC(C)(C)CN1CCN(c2ccc(NC(=O)c3c(Nc4cnc5c(c4C)NCCO5)cc[nH]c3=O)cc2)CC1` [Example 310, N-(4-(4-(2-methoxy-2-methylpropyl)piperazin-1-yl)phenyl)-4-((8-methyl-2,3-dihydro-1H-pyrido[2,3-b][1,4]oxazin-7-yl)amino)-2-oxo-1,2-dihydropyridine-3-carboxamide]: at most 10 nM.
Then `Cc1c(Nc2cc[nH]c(=O)c2C(=O)Nc2ccc(N3CCN(C(=O)CC4CC4)CC3)cc2)cnc2c1NCCO2` [Example 312, N-(4-(4-(2-cyclopropylacetyl)piperazin-1-yl)phenyl)-4-((8-methyl-2,3-dihydro-1H-pyrido[2,3-b][1,4]oxazin-7-yl)amino)-2-oxo-1,2-dihydropyridine-3-carboxamide], with at most 10 nM.
